The results in this text go back to patent publication US10618916B2, “Heterocyclic compounds as immunomodulators” (Incyte Corporation, priority 2018, dated 2020).

Read-outs that look alike come from different tables or passages of the source.

The target in assay [1] is PD-L1 (Homo sapiens (Human), UniProt Q9NZQ7). Briefly: PD-L1 whole blood internalization assay. The format is cell-based. To be noted: 24 HR, PD-L1 expression on CD14+ cells, human interferon γ. The procedure: Example D. PD-L1 Whole Blood Internalization Assay
PD-L1, sequence (Q9NZQ7 19-290): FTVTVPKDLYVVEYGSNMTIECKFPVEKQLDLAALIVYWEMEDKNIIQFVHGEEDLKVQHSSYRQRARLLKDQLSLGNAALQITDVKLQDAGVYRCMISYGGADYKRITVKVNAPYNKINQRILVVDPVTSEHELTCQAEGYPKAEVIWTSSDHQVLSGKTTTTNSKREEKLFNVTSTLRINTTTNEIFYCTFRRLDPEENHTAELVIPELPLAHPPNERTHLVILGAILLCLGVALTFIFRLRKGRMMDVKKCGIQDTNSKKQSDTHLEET
To determine PD-L1 internalization in human whole blood, normal human blood (Biological Specialty Corp, Colmar. Pa.) was incubated in the presence or absence of a concentration range of test compounds and 1 ng/ml human interferon γ (R&D Systems Inc. Minn. […] Blood was then stained with PD-L1 (MIH1, eBioscience; or BD Biosciences San Jose, Calif.), CD14 (Life Technologies, Carlsbad, Calif.) for 30 minutes in the dark at room temperature. Whole Blood/red cells were lysed/fixed (lysis buffer BD Biosciences) for 5 minutes at 37° C. in the dark and then centrifuged at 1600 RPM for 5 minutes. Cells were resuspended in Stain Buffer (BD Bioscience, San Jose, Calif.) and transferred into 96 well round bottom plates (Corning). Cells were gated on CD14+(BD Biosciences) and PD-L1 expression determined by mean fluorescence intensity (MFI) (BD LSRFortessa™ X-20). IC50 determination was performed by fitting the curve of compound percent inhibition versus the log of the compound concentration using the GraphPad Prism 7.0 software.

Assay [2] relates to PD-L1 aAPC/CHO-K1 cells and Jurkat-PD-1-NFAT effector cells. Description: Nuclear factor of activated T-cells (NFAT) assay. The format is cell-based. An outline of the steps: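 CHO-K1 cells expressing PD-L1 aAPC were co-cultured with Jurkat-PD-1-NFAT effector cells in RPMI 1640 with 1% FBS and compound (0.4% DMSO; top concentration 2 μM) for 24 h at 37 °C. Bio-Glo luminescence was read, fold induction normalised to DMSO wells, and EC50 fitted from percent of control compound activity.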

Assay [3] addresses PD-1/PD-L1 protein/protein interaction (recombinant human PD-L1 and human PD-1) (Homo sapiens (Human), UniProt Q9NZQ7). Description: Homogeneous Time-Resolved Fluorescence (HTRF) PD-1/PD-L1 binding assay. Summed up: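 Human PD-L1 (19-238, C-His; 10 nM final) and PD-1 (25-167, C-Fc; 3 nM final) preincubated 40 min with inhibitor in PBS pH 7.4, 0.05% Tween-20, 0.1% BSA, 1% DMSO, 25 °C. Eu-anti-human IgG (1 nM) and anti-His-APC (20 nM) added for 60 min; 665/620 nm ratio; IC50 from percent-control curves.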
(In general: In TR-FRET formats the signal depends on donor and acceptor labels being close together.)

Assay [4] deals with U2OS/PD-L1 cells and Jurkat-PD-1-SHP cells. Briefly: Src homology region 2 domain-containing phosphatase (SHP) assay. Type of assay: cell-based. Summed up: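 U2OS/PD-L1 and Jurkat-PD-1-SHP cells (5000 each per well) were co-incubated with compound for 2 h at 37 °C in RPMI1640 with 1% FBS, 0.05% DMSO final. PathHunter chemiluminescence was read after 1 h at room temperature, and IC50 was fitted from percent of DMSO-control activity.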

PD-1/PD-L1 protein/protein interaction (recombinant human PD-L1 and human PD-1), sequence (Q9NZQ7 19-238): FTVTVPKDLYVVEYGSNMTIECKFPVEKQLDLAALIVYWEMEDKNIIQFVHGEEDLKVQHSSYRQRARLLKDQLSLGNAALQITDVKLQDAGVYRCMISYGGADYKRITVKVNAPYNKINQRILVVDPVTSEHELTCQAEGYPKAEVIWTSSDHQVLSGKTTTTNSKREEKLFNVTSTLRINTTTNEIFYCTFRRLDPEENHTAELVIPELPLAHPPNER

The term IC50 denotes the concentration that inhibits the measured activity by half. For orientation: EC50 means the concentration giving half of the maximal effect. A high value points to lower potency in that assay. Take `Cn1c(C(=O)Nc2cccc(-c3cccc(NC(=O)c4nc5c(n4C)CCN(C4CCC(O)CC4)C5)c3Cl)c2Cl)nc2c1CCN(CCC13CCC(C(=O)O)(CC1)C3)C2` (single isomer, unassigned) [60 (compound 2), 4-(2-(2-((2,2′-dichloro-3′-(5-(4-hydroxycyclohexyl)-1-methyl-4,5,6,7-tetrahydro-1H-imidazo[4,5-c]pyridine-2-carboxamido)-[1,1′-biphenyl]-3-yl)carbamoyl)-1-methyl-1,4,6,7-tetrahydro-5H-imidazo[4,5-c]pyridin-5-yl)ethyl)bicyclo[2.2.1]heptane-1-carboxylic Acid]: the half-maximal inhibitory concentration (IC50) in assay [1] was 10 to 100 nM; in assay [3], no more than 5 nM; in assay [4], no more than 10 nM. For the same compound, the half-maximal effective concentration (EC50) in assay [2] was no more than 10 nM.

`Cc1c(NC(=O)c2nc3c(n2C)CCN(C2CCC(O)CC2)C3)cccc1-c1cccc(NC(=O)c2nc3c(n2C)CCN(CCC24CCC(C(=O)O)(CC2)C4)C3)c1Cl` (single isomer, unassigned) [61 (compound 1), 4-(2-(2-((2-chloro-3′-(5-(4-hydroxycyclohexyl)-1-methyl-4,5,6,7-tetrahydro-1H-imidazo[4,5-c]pyridine-2-carboxamido)-2′-methyl-[1,1′-biphenyl]-3-yl)carbamoyl)-1-methyl-1,4,6,7-tetrahydro-5H-imidazo[4,5-c]pyridin-5-yl)ethyl)bicyclo[2.2.1]heptane-1-carboxylic acid]: the IC50 was 10 to 100 nM in assay [1]; no more than 5 nM in assay [3]; no more than 10 nM in assay [4] (Homo sapiens, U2OS). Besides, the concentration for a half-maximal effect (EC50) in assay [2] (Cricetulus griseus, CHO-K1) lay within 10 to 100 nM.

For the compound `Cn1c(C(=O)Nc2cccc(-c3cccc(NC(=O)c4nc5c(n4C)CCN(CCC46CCC(C(=O)O)(CC4)C6)C5)c3Cl)c2Cl)nc2c1CCNC2` [Example 1, 4-(2-(2-((2,2′-dichloro-3′-(1-methyl-4,5,6,7-tetrahydro-1H-imidazo[4,5-c]pyridine-2-carboxamido)-[1,1′-biphenyl]-3-yl)carbamoyl)-1-methyl-1,4,6,7-tetrahydro-5H-imidazo[4,5-c]pyridin-5-yl)ethyl)bicyclo[2.2.1]heptane-1-carboxylic Acid], the IC50 was no more than 10 nM in assay [1]; no more than 5 nM in assay [3]; no more than 10 nM in assay [4] (Homo sapiens, U2OS). In addition, in assay [2] (Cricetulus griseus, CHO-K1), the EC50 is 10 to 100 nM.

With `Cn1c(C(=O)Nc2cccc(-c3cccc(NC(=O)c4nc5c(n4C)CCN(C4CCOCC4)C5)c3Cl)c2Cl)nc2c1CCN(CCC13CCC(C(=O)O)(CC1)C3)C2` [Example 2, 4-(2-(2-((2,2′-dichloro-3′-(1-methyl-5-(tetrahydro-2H-pyran-4-yl)-4,5,6,7-tetrahydro-1H-imidazo[4,5-c]pyridine-2-carboxamido)-[1,1′-biphenyl]-3-yl)carbamoyl)-1-methyl-1,4,6,7-tetrahydro-5H-imidazo[4,5-c]pyridin-5-yl)ethyl)bicyclo[2.2.1]heptane-1-carboxylic Acid], the half-inhibitory concentration (IC50) in assay [1] was 10 to 100 nM; in assay [3] it was no more than 5 nM; in assay [4] (Homo sapiens, U2OS), no more than 10 nM. In assay [2] (Cricetulus griseus, CHO-K1), this compound returned a concentration for a half-maximal effect (EC50) of 10 to 100 nM.

Regarding `Cn1c(C(=O)Nc2cccc(-c3cccc(NC(=O)c4nc5c(n4C)CCN(C4CCN(S(N)(=O)=O)CC4)C5)c3Cl)c2Cl)nc2c1CCN(CCC13CCC(C(=O)O)(CC1)C3)C2` [Example 8, 4-(2-(2-((2,2′-dichloro-3′-(1-methyl-5-(1-sulfamoylpiperidin-4-yl)-4,5,6,7-tetrahydro-1H-imidazo[4,5-c]pyridine-2-carboxamido)-[1,1′-biphenyl]-3-yl)carbamoyl)-1-methyl-1,4,6,7-tetrahydro-5H-imidazo[4,5-c]pyridin-5-yl)ethyl)bicyclo[2.2.1]heptane-1-carboxylic acid], the half-inhibitory concentration (IC50) in assay [1] is 100 to 500 nM; in assay [3], no more than 5 nM; in assay [4] (Homo sapiens, U2OS) it was no more than 10 nM. In assay [2] (Cricetulus griseus, CHO-K1), this compound registered an EC50 of 10 to 100 nM.

On to `Cn1c(C(=O)Nc2cccc(-c3cccc(NC(=O)c4nc5c(n4C)CCN(Cc4cc[nH]n4)C5)c3Cl)c2Cl)nc2c1CCN(CCC13CCC(C(=O)O)(CC1)C3)C2` [Example 9, 4-(2-(2-((3′-(5-((1H-pyrazol-3-yl)methyl)-1-methyl-4,5,6,7-tetrahydro-1H-imidazo[4,5-c]pyridine-2-carboxamido)-2,2′-dichloro-[1,1′-biphenyl]-3-yl)carbamoyl)-1-methyl-1,4,6,7-tetrahydro-5H-imidazo[4,5-c]pyridin-5-yl)ethyl)bicyclo[2.2.1]heptane-1-carboxylic acid], for which the concentration for half-maximal inhibition (IC50) in assay [1] was 10 to 100 nM; in assay [3], no more than 5 nM; in assay [4] (Homo sapiens, U2OS), no more than 10 nM. Further, the EC50 in assay [2] (Cricetulus griseus, CHO-K1) lay in the range of 10 to 100 nM.

Take `Cn1c(C(=O)Nc2cccc(-c3cccc(NC(=O)c4nc5c(n4C)CCN(C(CO)CO)C5)c3Cl)c2Cl)nc2c1CCN(CCC13CCC(C(=O)O)(CC1)C3)C2` [Example 10, 4-(2-(2-((2,2′-dichloro-3′-(5-(1,3-dihydroxypropan-2-yl)-1-methyl-4,5,6,7-tetrahydro-1H-imidazo[4,5-c]pyridine-2-carboxamido)-[1,1′-biphenyl]-3-yl)carbamoyl)-1-methyl-1,4,6,7-tetrahydro-5H-imidazo[4,5-c]pyridin-5-yl)ethyl)bicyclo[2.2.1]heptane-1-carboxylic acid]: the half-inhibitory concentration (IC50) is 10 to 100 nM in assay [1]; no more than 5 nM in assay [3]; no more than 10 nM in assay [4] (Homo sapiens, U2OS). This compound came in with an EC50 in assay [2] (Cricetulus griseus, CHO-K1) of 10 to 100 nM.

`Cn1c(C(=O)Nc2cccc(-c3cccc(NC(=O)c4nc5c(n4C)CCN(C[C@@H](O)CO)C5)c3Cl)c2Cl)nc2c1CCN(CCC13CCC(C(=O)O)(CC1)C3)C2` [Example 11, (R)-4-(2-(2-((2,2′-dichloro-3′-(5-(2,3-dihydroxypropyl)-1-methyl-4,5,6,7-tetrahydro-1H-imidazo[4,5-c]pyridine-2-carboxamido)-[1,1′-biphenyl]-3-yl)carbamoyl)-1-methyl-1,4,6,7-tetrahydro-5H-imidazo[4,5-c]pyridin-5-yl)ethyl)bicyclo[2.2.1]heptane-1-carboxylic acid]: the IC50 in assay [1] was in the range of 100 to 500 nM; in assay [3], 5 to 10 nM; in assay [4] (Homo sapiens, U2OS) it was 10 to 100 nM. For the same compound, in assay [2] (Cricetulus griseus, CHO-K1), the concentration for a half-maximal effect (EC50) lay within 10 to 100 nM.

As to `Cn1c(C(=O)Nc2cccc(-c3cccc(NC(=O)c4nc5c(n4C)CCN(C[C@H](O)CO)C5)c3Cl)c2Cl)nc2c1CCN(CCC13CCC(C(=O)O)(CC1)C3)C2` [Example 12, (S)-4-(2-(2-((2,2′-dichloro-3′-(5-(2,3-dihydroxypropyl)-1-methyl-4,5,6,7-tetrahydro-1H-imidazo[4,5-c]pyridine-2-carboxamido)-[1,1′-biphenyl]-3-yl)carbamoyl)-1-methyl-1,4,6,7-tetrahydro-5H-imidazo[4,5-c]pyridin-5-yl)ethyl)bicyclo[2.2.1]heptane-1-carboxylic acid], the 50% inhibitory concentration (IC50) in assay [1] is 10 to 100 nM; in assay [3] it was no more than 5 nM; in assay [4] (Homo sapiens, U2OS), no more than 10 nM. The same compound displayed a 50% effective concentration (EC50) in assay [2] (Cricetulus griseus, CHO-K1) of 10 to 100 nM.

`C[C@@H](O)CN1CCc2c(nc(C(=O)Nc3cccc(-c4cccc(NC(=O)c5nc6c(n5C)CCN(CCC57CCC(C(=O)O)(CC5)C7)C6)c4Cl)c3Cl)n2C)C1` [Example 13, (R)-4-(2-(2-((2,2′-dichloro-3′-(5-(2-hydroxypropyl)-1-methyl-4,5,6,7-tetrahydro-1H-imidazo[4,5-c]pyridine-2-carboxamido)-[1,1′-biphenyl]-3-yl)carbamoyl)-1-methyl-1,4,6,7-tetrahydro-5H-imidazo[4,5-c]pyridin-5-yl)ethyl)bicyclo[2.2.1]heptane-1-carboxylic Acid]: the concentration for half-maximal inhibition (IC50) in assay [1] was 10 to 100 nM; in assay [3] it was no more than 5 nM; in assay [4] (Homo sapiens, U2OS) it was no more than 10 nM. The compound also returned an EC50 in assay [2] (Cricetulus griseus, CHO-K1) of no more than 10 nM.

On to `C[C@H](O)CN1CCc2c(nc(C(=O)Nc3cccc(-c4cccc(NC(=O)c5nc6c(n5C)CCN(CCC57CCC(C(=O)O)(CC5)C7)C6)c4Cl)c3Cl)n2C)C1` [Example 14, (S)-4-(2-(2-((2,2′-dichloro-3′-(5-(2-hydroxypropyl)-1-methyl-4,5,6,7-tetrahydro-1H-imidazo[4,5-c]pyridine-2-carboxamido)-[1,1′-biphenyl]-3-yl)carbamoyl)-1-methyl-1,4,6,7-tetrahydro-5H-imidazo[4,5-c]pyridin-5-yl)ethyl)bicyclo[2.2.1]heptane-1-carboxylic acid], for which the half-maximal inhibitory concentration (IC50) is 10 to 100 nM in assay [1]; no more than 5 nM in assay [3]; no more than 10 nM in assay [4] (Homo sapiens, U2OS). For the same compound, the EC50 in assay [2] (Cricetulus griseus, CHO-K1) lay in the range of 10 to 100 nM.
